ChEMBL document CHEMBL3886234, “Isoform selective phospholipase D inhibitors” (2015)
pIC50: −log10 of the molar value.

Molecular target: T1, Phospholipase D1 (Homo sapiens, UniProt Q13393)
T1 sequence (Q13393 whole entry): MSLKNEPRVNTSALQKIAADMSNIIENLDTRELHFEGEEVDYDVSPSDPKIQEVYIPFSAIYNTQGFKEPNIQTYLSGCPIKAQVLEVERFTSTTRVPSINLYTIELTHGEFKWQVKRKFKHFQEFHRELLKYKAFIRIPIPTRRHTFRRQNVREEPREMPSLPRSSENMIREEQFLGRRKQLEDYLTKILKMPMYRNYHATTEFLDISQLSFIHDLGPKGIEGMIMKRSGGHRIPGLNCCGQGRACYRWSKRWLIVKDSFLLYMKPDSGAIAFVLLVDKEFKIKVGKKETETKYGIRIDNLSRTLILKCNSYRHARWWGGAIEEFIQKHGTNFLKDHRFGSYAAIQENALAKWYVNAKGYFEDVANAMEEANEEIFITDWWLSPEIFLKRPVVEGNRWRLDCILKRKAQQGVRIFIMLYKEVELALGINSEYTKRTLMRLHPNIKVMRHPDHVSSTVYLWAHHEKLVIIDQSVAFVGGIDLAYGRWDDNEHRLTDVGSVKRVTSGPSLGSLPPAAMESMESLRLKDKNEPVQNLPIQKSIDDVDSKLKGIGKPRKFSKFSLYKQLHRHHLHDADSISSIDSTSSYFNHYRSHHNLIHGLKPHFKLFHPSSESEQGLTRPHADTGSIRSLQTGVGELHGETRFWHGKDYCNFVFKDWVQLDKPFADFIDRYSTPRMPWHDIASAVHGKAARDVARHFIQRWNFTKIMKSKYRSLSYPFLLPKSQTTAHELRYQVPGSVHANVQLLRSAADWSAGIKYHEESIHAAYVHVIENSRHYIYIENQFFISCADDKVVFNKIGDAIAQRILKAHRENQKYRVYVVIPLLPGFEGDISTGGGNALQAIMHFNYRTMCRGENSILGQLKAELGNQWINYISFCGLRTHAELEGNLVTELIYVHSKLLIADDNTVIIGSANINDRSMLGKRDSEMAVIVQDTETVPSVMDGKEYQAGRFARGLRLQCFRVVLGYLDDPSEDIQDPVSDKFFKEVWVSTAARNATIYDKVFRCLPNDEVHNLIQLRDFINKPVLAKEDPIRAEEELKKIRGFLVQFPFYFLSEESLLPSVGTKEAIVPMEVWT
Experiment: Inhibition Assay: In one aspect, the compound inhibits PLD activity; that is, a compound can inhibit PLD1 activity and/or PLD2 activity. In a further aspect, the compound inhibits PLD1 response in Calu-1 cells. In a further aspect, the compound inhibits PLD2 response in HEK293gfpPLD2 cells. In a further aspect, the compound inhibits in vitro PLD1 response. In a further aspect, the compound …
Assay type: cell-based

C[C@@H](CN1CCC2(CC1)C(=O)NC[C@@H]2c1ccc(F)cc1)NC(=O)c1ccc(F)cc1
pIC50: 5.92
